Assay [1] addresses Dual specificity mitogen-activated protein kinase kinase 2 (Homo sapiens) (UniProt P36507). Briefly: Selectivity interaction (Kinase panel (Z-LYTE Assay)) EUB0001632a MAP2K2. Particulars: at 10 µM.
For assay [2], the system named is Phosphatidylinositol 4,5-bisphosphate 3-kinase catalytic subunit alpha isoform (Homo sapiens), P42336 [E545A]. As to the kind of experiment: (§1) Selectivity interaction (KinomeScan (DiscoverX)) EUB0001619a PIK3CA. Particulars: at 1 µM.
The subject of assay [3] is Phosphatidylinositol 4,5-bisphosphate 3-kinase catalytic subunit alpha isoform (Homo sapiens), P42336 [E545K]. The assay is described as §1. The following applies: at 1 µM.
The test system of assay [4] is Phosphatidylinositol 4,5-bisphosphate 3-kinase catalytic subunit alpha isoform (Homo sapiens), P42336 [M1043I]. Described as §1. Particulars: at 1 µM.
Assay [5] concerns Phosphatidylinositol 4,5-bisphosphate 3-kinase catalytic subunit alpha isoform (Homo sapiens), P42336 [Q546K]. The assay is described as §1. The following applies: at 1 µM.
The subject of assay [6] is Phosphatidylinositol 4,5-bisphosphate 3-kinase catalytic subunit alpha isoform (Homo sapiens), P42336 [H1047Y]. The assay is described as §1. The following applies: at 1 µM.
The test system of assay [7] is Phosphatidylinositol 4,5-bisphosphate 3-kinase catalytic subunit alpha isoform (Homo sapiens), P42336 [I800L]. Described as §1. Particulars: at 1 µM.
Assay [8] concerns the target Phosphatidylinositol 4,5-bisphosphate 3-kinase catalytic subunit alpha isoform (Homo sapiens) (UniProt P42336). The assay is described as §1. The following applies: at 1 µM.
Assay [9] deals with Phosphatidylinositol 4,5-bisphosphate 3-kinase catalytic subunit alpha isoform (Homo sapiens), P42336 [C420R]. The assay is described as §1. The following applies: at 1 µM.
Assay [10] concerns Phosphatidylinositol 4,5-bisphosphate 3-kinase catalytic subunit alpha isoform (Homo sapiens), P42336 [H1047L]. Described as §1. The following applies: at 1 µM.
Assay [11] relates to Phosphatidylinositol 4,5-bisphosphate 3-kinase catalytic subunit alpha isoform (Homo sapiens), P42336 [E542K]. The assay is described as §1. The following applies: at 1 µM.
Assay [12] addresses T1, Aurora kinase A (Homo sapiens) (UniProt O14965).
T1 sequence (whole entry): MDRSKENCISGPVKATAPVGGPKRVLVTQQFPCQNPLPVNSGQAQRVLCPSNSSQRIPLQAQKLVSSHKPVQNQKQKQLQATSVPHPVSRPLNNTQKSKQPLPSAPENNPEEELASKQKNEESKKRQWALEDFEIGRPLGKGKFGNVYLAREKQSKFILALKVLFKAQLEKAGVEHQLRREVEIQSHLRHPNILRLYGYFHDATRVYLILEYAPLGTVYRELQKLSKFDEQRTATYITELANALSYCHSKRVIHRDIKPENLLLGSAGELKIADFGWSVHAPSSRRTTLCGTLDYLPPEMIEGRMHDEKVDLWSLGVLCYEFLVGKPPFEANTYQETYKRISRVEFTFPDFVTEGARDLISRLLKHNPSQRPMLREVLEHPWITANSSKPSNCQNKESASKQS
Briefly: Selectivity interaction (KinomeScan (DiscoverX)) EUB0000666a STK6. The following applies: at 10 µM.

The target of assay [13] is T2, Dual specificity mitogen-activated protein kinase kinase 4 (Homo sapiens) (UniProt P45985).
T2 sequence (whole entry): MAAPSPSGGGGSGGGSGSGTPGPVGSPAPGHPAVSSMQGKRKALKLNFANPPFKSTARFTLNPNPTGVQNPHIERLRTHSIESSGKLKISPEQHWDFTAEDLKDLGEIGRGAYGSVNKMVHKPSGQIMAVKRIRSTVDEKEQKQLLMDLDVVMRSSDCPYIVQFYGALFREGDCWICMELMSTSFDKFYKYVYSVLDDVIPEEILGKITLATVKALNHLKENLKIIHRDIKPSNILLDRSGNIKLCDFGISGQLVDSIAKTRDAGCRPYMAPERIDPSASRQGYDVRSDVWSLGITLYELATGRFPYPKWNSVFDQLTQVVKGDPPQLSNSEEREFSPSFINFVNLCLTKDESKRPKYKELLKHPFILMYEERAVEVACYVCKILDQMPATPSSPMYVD
As to the kind of experiment: Selectivity interaction (Kinase screening (Upstate/Millipore)) EUB0000604a MAP2K4.

Assay [14] addresses Interferon-induced, double-stranded RNA-activated protein kinase (Homo sapiens) (UniProt P19525). Briefly: Selectivity interaction (ActivX KiNativ screen (kinase selectivity in THP-1 cell lysates)) EUB0000639a EIF2AK2. The format is subcellular. Particulars: lysate, at 0.04 µM.
Assay [15] addresses Vascular endothelial growth factor receptor 3 (Homo sapiens, UniProt P35916). Briefly: Selectivity interaction (KinomeScan (DiscoverX)) EUB0000045b FLT4.
The target of assay [16] is T3, Atypical kinase COQ8B, mitochondrial (Homo sapiens) (UniProt Q96D53).
T3 sequence (whole entry): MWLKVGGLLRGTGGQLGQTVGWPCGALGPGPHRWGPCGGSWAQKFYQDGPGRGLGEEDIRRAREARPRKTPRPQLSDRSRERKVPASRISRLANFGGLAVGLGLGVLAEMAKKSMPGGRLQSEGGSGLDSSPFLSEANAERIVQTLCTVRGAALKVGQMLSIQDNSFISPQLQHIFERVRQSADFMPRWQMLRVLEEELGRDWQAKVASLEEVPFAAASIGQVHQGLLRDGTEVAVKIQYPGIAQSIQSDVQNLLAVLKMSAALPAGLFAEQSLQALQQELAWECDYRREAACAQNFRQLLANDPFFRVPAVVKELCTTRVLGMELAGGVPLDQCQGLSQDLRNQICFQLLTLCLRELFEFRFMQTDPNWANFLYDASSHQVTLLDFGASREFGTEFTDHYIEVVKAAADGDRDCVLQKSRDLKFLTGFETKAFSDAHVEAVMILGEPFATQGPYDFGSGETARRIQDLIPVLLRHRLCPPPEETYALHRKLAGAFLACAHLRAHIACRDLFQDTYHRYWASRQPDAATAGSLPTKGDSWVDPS
As to the kind of experiment: Selectivity interaction (KinomeScan (DiscoverX)) EUB0001049a ADCK4. The following applies: at 1 µM.

For assay [17], the target named is AP2-associated protein kinase 1 (Homo sapiens, UniProt Q2M2I8). Briefly: Selectivity interaction (KinomeScan (DiscoverX)) EUB0001049a AAK1. Particulars: at 1 µM.
Assay [18] deals with Proto-oncogene tyrosine-protein kinase receptor Ret (Homo sapiens, UniProt P07949). As to the kind of experiment: (§2) Selectivity interaction (KinomeScan (DiscoverX)) EUB0001049a RET. Particulars: at 1 µM.
Assay [19] concerns Proto-oncogene tyrosine-protein kinase receptor Ret (Homo sapiens), P07949 [V804M]. The description is as §2. The following applies: at 1 µM.
The test system of assay [20] is Proto-oncogene tyrosine-protein kinase receptor Ret (Homo sapiens), P07949 [M918T]. The assay is described as §2. Particulars: at 1 µM.
In assay [21] the test system is Proto-oncogene tyrosine-protein kinase receptor Ret (Homo sapiens), P07949 [V804L]. Described as §2. The following applies: at 1 µM.
The target in assay [22] is 5-hydroxytryptamine receptor 1B (Homo sapiens) (UniProt P28222). As to the kind of experiment: Selectivity interaction (Panel of kinases, GPCRs, ion channels and transporters (enzymatic assay)) EUB0000223bCl HTR1B.
The target in assay [23] is N-lysine methyltransferase SMYD2 (Homo sapiens) (UniProt Q9NRG4). Briefly: Selectivity interaction (Methyltransferase screen (radiometric assays, panel of 8 PRMTs, 21 protein lysine methyltransferases, 3 DNA methyltransferases, and one RNA methyltransferase)) EUB0000271b SMYD2.
Assay [24] deals with Ribosomal protein S6 kinase alpha-2 (Homo sapiens) (UniProt Q15349). As to the kind of experiment: Selectivity interaction (KinomeScan (DiscoverX)) EUB0001079a RPS6KA2. The following applies: at 1 µM.

Sequence of Vascular endothelial growth factor receptor 3 (P35916 whole entry): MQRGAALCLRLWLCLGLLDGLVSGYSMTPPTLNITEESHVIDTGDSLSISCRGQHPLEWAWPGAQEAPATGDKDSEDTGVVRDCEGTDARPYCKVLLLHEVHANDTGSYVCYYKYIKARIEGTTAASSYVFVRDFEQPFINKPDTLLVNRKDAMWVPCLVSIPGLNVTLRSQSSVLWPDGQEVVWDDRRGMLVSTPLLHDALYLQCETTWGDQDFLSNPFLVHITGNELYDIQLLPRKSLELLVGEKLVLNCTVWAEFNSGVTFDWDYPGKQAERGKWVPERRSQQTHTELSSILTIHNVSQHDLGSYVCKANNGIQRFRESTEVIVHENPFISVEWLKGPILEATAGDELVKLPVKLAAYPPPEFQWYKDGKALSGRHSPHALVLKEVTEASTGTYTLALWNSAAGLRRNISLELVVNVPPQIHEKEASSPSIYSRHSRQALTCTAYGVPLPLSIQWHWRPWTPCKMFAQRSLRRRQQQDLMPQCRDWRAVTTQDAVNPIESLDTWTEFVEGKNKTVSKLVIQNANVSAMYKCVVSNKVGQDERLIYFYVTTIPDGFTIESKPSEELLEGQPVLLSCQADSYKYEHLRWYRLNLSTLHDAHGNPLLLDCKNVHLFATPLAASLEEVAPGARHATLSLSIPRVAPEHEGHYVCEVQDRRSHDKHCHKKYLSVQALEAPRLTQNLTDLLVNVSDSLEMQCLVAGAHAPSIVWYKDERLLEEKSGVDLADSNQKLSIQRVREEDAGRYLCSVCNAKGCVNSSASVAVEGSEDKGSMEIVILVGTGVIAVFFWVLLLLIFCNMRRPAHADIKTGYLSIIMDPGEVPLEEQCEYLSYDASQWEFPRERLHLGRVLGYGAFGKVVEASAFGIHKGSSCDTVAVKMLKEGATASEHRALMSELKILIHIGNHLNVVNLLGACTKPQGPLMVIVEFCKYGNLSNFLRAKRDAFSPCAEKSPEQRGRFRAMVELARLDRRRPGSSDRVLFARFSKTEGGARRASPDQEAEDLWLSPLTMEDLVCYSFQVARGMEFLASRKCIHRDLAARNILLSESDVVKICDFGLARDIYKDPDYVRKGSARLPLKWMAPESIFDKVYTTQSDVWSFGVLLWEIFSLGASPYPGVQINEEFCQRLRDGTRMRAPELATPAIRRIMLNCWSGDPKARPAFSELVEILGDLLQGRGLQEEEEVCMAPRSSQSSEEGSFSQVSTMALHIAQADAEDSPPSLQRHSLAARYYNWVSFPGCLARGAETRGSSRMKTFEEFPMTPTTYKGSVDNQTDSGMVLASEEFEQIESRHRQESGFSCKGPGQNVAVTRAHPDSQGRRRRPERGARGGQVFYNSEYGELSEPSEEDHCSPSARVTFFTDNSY
Sequence of N-lysine methyltransferase SMYD2 (Homo sapiens) (Q9NRG4 whole entry): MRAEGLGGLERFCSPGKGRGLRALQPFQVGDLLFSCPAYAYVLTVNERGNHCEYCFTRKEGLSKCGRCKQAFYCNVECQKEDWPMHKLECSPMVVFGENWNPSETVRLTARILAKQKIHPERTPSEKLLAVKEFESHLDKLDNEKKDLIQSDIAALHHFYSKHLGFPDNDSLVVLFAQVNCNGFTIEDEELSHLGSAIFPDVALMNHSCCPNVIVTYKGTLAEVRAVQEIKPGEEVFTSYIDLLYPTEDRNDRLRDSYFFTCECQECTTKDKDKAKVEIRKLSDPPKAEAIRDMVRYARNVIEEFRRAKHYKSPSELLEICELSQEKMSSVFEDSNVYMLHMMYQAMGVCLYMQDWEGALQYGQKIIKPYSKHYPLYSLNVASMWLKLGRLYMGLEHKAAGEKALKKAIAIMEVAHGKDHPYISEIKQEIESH
Sequence of Phosphatidylinositol 4,5-bisphosphate 3-kinase catalytic subunit alpha isoform (Homo sapiens), P42336 [E542K] (P42336 whole entry E542K, canonical isoform): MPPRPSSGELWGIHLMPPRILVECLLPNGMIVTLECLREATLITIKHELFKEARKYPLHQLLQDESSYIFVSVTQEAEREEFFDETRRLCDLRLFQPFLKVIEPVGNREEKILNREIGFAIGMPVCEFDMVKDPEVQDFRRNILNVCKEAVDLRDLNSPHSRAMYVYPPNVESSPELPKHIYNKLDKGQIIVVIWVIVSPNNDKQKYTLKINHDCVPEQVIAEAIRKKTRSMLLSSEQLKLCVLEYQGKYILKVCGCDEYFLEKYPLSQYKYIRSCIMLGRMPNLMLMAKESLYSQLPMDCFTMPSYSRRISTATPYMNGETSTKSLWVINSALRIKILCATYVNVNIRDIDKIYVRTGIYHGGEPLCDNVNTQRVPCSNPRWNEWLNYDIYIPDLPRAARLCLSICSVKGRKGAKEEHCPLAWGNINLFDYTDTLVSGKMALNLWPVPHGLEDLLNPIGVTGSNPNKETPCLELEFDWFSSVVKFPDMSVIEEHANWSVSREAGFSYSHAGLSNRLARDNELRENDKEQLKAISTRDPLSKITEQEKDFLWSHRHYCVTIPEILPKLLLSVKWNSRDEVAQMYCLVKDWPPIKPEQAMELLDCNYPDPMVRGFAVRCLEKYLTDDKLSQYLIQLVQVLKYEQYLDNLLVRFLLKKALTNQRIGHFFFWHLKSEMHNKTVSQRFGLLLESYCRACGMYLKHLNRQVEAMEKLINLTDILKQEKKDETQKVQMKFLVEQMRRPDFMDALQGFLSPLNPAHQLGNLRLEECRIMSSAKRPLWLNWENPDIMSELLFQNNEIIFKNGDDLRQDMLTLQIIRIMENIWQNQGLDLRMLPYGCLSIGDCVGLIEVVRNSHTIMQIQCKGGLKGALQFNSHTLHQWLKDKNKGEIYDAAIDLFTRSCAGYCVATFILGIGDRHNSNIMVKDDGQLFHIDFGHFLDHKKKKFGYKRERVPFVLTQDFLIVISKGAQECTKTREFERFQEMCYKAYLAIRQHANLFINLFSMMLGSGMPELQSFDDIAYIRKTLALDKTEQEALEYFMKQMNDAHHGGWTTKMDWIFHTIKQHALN
Sequence of Proto-oncogene tyrosine-protein kinase receptor Ret (Homo sapiens), P07949 [V804M] (P07949 whole entry V804M): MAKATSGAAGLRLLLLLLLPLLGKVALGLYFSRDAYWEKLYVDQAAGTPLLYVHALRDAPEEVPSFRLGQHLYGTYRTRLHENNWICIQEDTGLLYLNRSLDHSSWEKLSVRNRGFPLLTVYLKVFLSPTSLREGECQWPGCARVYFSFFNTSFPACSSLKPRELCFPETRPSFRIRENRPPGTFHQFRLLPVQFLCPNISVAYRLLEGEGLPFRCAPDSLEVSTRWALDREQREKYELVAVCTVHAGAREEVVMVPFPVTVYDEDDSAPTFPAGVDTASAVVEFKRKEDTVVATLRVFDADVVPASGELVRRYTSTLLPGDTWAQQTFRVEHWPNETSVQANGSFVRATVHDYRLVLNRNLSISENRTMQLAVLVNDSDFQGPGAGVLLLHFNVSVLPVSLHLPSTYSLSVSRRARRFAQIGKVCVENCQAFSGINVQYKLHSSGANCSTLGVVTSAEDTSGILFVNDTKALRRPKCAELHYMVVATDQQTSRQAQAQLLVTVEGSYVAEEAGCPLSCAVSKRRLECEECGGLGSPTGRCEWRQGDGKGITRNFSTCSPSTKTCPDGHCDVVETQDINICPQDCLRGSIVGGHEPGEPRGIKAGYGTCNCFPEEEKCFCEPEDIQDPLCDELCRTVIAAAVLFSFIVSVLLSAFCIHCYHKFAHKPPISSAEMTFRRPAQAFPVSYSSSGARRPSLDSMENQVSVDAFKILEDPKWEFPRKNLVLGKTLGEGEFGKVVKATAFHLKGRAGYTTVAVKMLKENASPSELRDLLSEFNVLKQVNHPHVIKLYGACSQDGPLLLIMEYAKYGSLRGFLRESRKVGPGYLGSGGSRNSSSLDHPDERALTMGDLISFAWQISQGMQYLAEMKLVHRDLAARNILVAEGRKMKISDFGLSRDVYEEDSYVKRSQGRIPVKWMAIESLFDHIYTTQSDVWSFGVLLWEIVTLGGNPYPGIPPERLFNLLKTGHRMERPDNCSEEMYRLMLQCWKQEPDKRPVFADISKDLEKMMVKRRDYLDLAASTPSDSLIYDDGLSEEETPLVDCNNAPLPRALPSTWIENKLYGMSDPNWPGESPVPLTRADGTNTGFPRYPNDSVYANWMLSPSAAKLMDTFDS
Sequence of Proto-oncogene tyrosine-protein kinase receptor Ret (P07949 whole entry): as the sequence (P07949 whole entry V804M) above, with M804V counted along it

`Cn1cc(-n2cnc3c(NCc4nc5cc(Cl)c(Cl)cc5[nH]4)nc(N4CCOCC4)nc32)cn1`: the % of control in assay [1] was 3.34%.
In the case of `N#Cc1cccc(-c2c[nH]c3ncnc(N4CCOCC4)c23)c1`, the % of control came out at 100% in assay [2]; 96% in assay [3]; 100% in assay [4]; 97% in [5]; 76% in assay [6]; 88% in assay [7]. Moreover, the % of control in [8] amounted to 100%; in [9], 95%; in assay [10], 90%; in assay [11], 90%.
On to `O=C(NOC[C@H](O)CO)c1ccc(F)c(F)c1Nc1ccc(I)cc1F`, for which the % of control in [12] turned out to be 100%.
Take `Cc1cnc(Nc2ccc(F)cc2Cl)nc1-c1c[nH]c(C(=O)N[C@H](CO)c2cccc(Cl)c2)c1`: the % of inhibition in [13] turned out to be 69%.
In assay [14], `CC[C@@H]1[C@H](F)C(=O)N[C@@H]1COc1nccc2cc(C(N)=O)c(OC)cc12` [ZIMLOVISERTIB] gave a % of inhibition of 3.1%.
`C=CC(=O)Nc1cc(-n2c(=O)ccc3cnc4ccc(-c5ccc(NS(C)(=O)=O)cc5)cc4c32)ccc1C`: the values for the % of control in assay [15] (at 1 µM) and in [15] (at 10 µM) were 72% and 100%, respectively.
Turning to `COc1cc(Nc2nc(C)cc(-c3cnn4nc(OC)ccc34)n2)cc(C(F)(F)F)c1`, the % of control was 79% in [16]; 96% in assay [17]; 100% in assay [18]; 78% in assay [19]; 98% in assay [20]; 95% in assay [21].
`COc1cc(C(=O)N2CC[C@@H](O)[C@@H](N)C2)cc2nc(-c3cc4ccccc4n3CC3CC3)n(C)c12` gave a pXC50 in [22] of under 4.5 M.
Turning to `Cc1cc(C)cc([C@@H]2c3cc(C)ccc3NC(=O)CN2C(=O)c2ccc(Br)s2)c1`, the % of activity in [23] (at 1 µM) is 101%; in [23] (at 10 µM), 96.7%.
In assay [24], `Nc1cnc(N2CCc3cc(S(=O)(=O)Nc4c(F)cc(Cl)cc4F)cc(N4CCCC4=O)c32)nc1` [TP-020n] registered a % of control of 100%.

(Values after ChEMBL document CHEMBL5465560, “Selectivity Literature for EUbOPEN Chemogenomic Library” (2024).)
